Results taken from US20060167006A1, “Method of treatment” (priority 2003, published 2006).
Several values for one entry are separate records, joined by “and”; a condition that tells them apart may be missing. Equal entries are not always repeated. Entries after “also recorded” stand apart in the source; their conditions may differ. Where two headings read alike, the source gives them in different places.

Columns and labels:
[1] = system: pancreatic cancer cell lines; experiment: FACS cell cycle analysis; assay type: cell-based, human; settings: 48 hours of incubation, Compound I at GI50, compared to untreated cells
Excerpt: (§1) The resulting DNA histograms are interpreted using the Cell Quest Pro software (Becton Dickinson and Company, New York, USA).

ASPC-1 cells [2] = experiment: MTT cell growth assay, ASPC-1 cells (Example 1); assay type: cell-based, human
Excerpt: (§2) Cell culture and proliferation assay: The following materials are purchased: FCS, RPMI and Dulbecco's modified Eagle medium (DMEM), trypsin-EDTA solution, penicillin-streptomycin solution from Biochrom K G (Berlin, Germany). All the other reagents are from Sigma Chemical Co. (St. Louis, Mo., USA). ASPC-1, MIA PaCA-2, human pancreatic cell lines are obtained from American Type Culture Collection (Rockville, Md.). Compound I is kindly provided by Novartis Pharma AG (Basel, Switzerland). T3M4 human pancreatic cell lines are a gift from Dr. R. S. Metzgar (Durham, N.C., USA). TAKA-1 immortalized Syrian golden hamster pancreatic ductal cells are a gift from Prof. P. Pour (University of Nebraska, Omaha, Nebr., USA). Human pancreatic cancer cell lines are routinely grown in DMEM (MIA-PaCA-2) or RPMI (ASPC-1, T3M4) supplemented with 10% FCS, 100 U/ml penicillin and 100 μg/ml streptomycin (complete medium).
(§3) TAKA-1 cells are grown in RPMI supplemented with 10% FCS, 100 U/ml penicillin and 100 μg/ml streptomycin. Cells are seeded overnight at a density of 5000 cells/well in 96-well plates and the proliferation assay is performed as described above. […] Cellular MTT is solubilized with acidic isopropanol and the optical density is measured at 570 nm using a plate reader (Dynatech MR 7000). […]
(§4) Statistical analysis: Results are expressed as mean±SD. […]

ASPC-1 cells [3] = experiment: GI50 by MTT assay, Aspc-1 (Example 2); assay type: cell-based; settings: Homo sapiens, ASPC1, read-out: GI50 concentration
Excerpt: (§5) Material and Methods: RPMI-1640 DMEM, trypsin-EDTA, and penicillin-streptomycin are purchased from Invitrogen (Karlsruhe, Germany); FBS from PAN Biotech (Aidenbach, Germany); human recombinant PDGF, IGF-1 and FGF-2 from R&D Systems (Abingdon, United Kingdom), and EGF from Upstate Biotechnology (Hamburg, Germany). Phospho-PDGFR-beta (tyr857) and P-EGFR (tyr1173) polyclonal antibodies are purchased from Santa Cruz Biotechnology, Inc. (Santa Cruz, Calif., USA). Phospho-p44/42 MAPK (Thr202/Tyr204) antibodies are purchased from Cell Signaling Technology (Frankfurt, Germany), anti-rabbit IgG HRPO-linked antibodies and ECL immunoblotting detection reagents from Amersham Biosciences (Amersham Life Science, Amersham, UK), and anti-goat IgG-HPRO peroxidase linked antibodies from Santa Cruz Biotechnology, Inc. (Santa Cruz, Calif., USA). Complete mini-EDTA-free protease inhibitor cocktail tablets and Annexin-V-Fluos are purchased from Roche GmbH (Mannheim, Germany). All other reagents are from Sigma Chemical Company (Taufkirchen, Germany).
(§6) Cell culture and MTT assay: Human pancreatic cancer cell lines are routinely grown in DMEM (Colo-357 and Mia-PaCa-2) or RPMI (Aspc-1, BxPc-3, Capan-1, and T3M4) supplemented with 10% FBS, 100 U/ml penicillin, and 100 μg/ml streptomycin (complete medium). […] Formazan products are solubilized with acidic isopropanol, and the optical density is measured at 570 nm. […]

Mia-PaCa-2 cells [4] = experiment: Growth factor-induced proliferation (MTT), Mia-PaCa-2; assay type: cell-based, human; settings: Mia-PaCa-2, IGF-1 plus Compound I at GI50, 72 hours, MTT
Protocol: (§7) Cell culture and MTT assay: Human pancreatic cancer cell lines are routinely grown in DMEM (Colo-357 and Mia-PaCa-2) or RPMI (Aspc-1, BxPc-3, Capan-1, and T3M4) supplemented with 10% FBS, 100 U/ml penicillin, and 100 μg/ml streptomycin (complete medium). To assess cell proliferation, the MTT test is employed. […] After 48 or 72 hours of incubation, 3-(4,5-methylthiazol-2-yl)-2,5-diphenyl-tetrazolium bromide (MTT) is added (50 μg/well) for 4 hours. Formazan products are solubilized with acidic isopropanol, and the optical density is measured at 570 nm. […] All experiments are performed in triplicate.
(§8) EGF-induced proliferation of both Mia-PaCa-2 and T3M4 cell lines in a dose-dependent manner is seen with maximal effects of +72% ±7.5% (Mia-PaCa-2) and +52% ±23% (T3M4). […] FGF-2 markedly stimulates cell growth in Mia-PaCa-2 cell lines with maximal effects of +79% ±6%, and only slightly stimulated T3M4 cell lines, with maximal effects of +7% ±4%. […] Both cell lines are less sensitive to IGF-1 stimulation compared with EGF and FGF-2, with maximal effects of +24% ±2% in Mia-PaCa-2 and +17% ±4% in. T3M4.

colorectal cancer (HT29) = settings: other reported cancer cells, read-out: GI50 concentration; cited from earlier work
T3M4 cells [5] = experiment: MTT cell growth assay, T3M4 cells (Example 1); assay type: cell-based, human
Excerpt: as §2, §3, §4

Mia-PaCa-2 cells [6] = experiment: GI50 by MTT assay, Mia-PaCa-2 (Example 2); assay type: cell-based; settings: Homo sapiens, read-out: GI50 concentration
Excerpt: as §5, §6

[7] = system: TAKA-1 cells and the three pancreatic cancer cell lines; experiment: MTT cell growth assay, span over all four lines (Example 1); assay type: cell-based; settings: span over TAKA-1 and three pancreatic cancer cell lines
Excerpt: as §2, §3, §4

Colo-357 cells = experiment: GI50 by MTT assay, Colo-357 (Example 2); assay type: cell-based; settings: Homo sapiens, COLO357, Colo-357, complete medium (10% FBS), 48 h, read-out: GI50 concentration
Excerpt: as §5, §6

[8] = system: Lung cancer (6 cell lines); settings: other reported cancer cells, read-out: GI50 concentration; cited from earlier work
TAKA-1 cells = experiment: MTT cell growth assay, TAKA-1 cells (Example 1); assay type: cell-based, Syrian golden hamster; settings: 72 h
Excerpt: as §2
TAKA-1 cells are grown in RPMI supplemented with 10% FCS, 100 U/ml penicillin and 100 μg/ml streptomycin. Cells are seeded overnight at a density of 5000 cells/well in 96-well plates and the proliferation assay is performed as described above. […] After 72 hours, 3-(4,5-methylthiazol-2-yl)-2,5-diphenyl-tetrazolium bromide (MTT) is added (50 μg/well) for 4 hours. Cellular MTT is solubilized with acidic isopropanol and the optical density is measured at 570 nm using a plate reader (Dynatech MR 7000). All experiments are performed in triplicates.
Statistical analysis: Results are expressed as mean±SD. For statistical analysis, the Student t-test is used. Significance is defined as p<0.05.

pancreatic tumor cells = settings: complete medium (10% FCS) and 1% FCS medium
Excerpt: as §1

T3M4 cells [9] = experiment: GI50 by MTT assay, T3M4 (Example 2); assay type: cell-based; settings: Homo sapiens, T3M4, complete medium (10% FBS), 48 h, read-out: GI50 concentration
Excerpt: as §5, §6

Capan-1 cells = experiment: GI50 by MTT assay, Capan-1 (Example 2); assay type: cell-based; settings: Homo sapiens, Capan-1, complete medium (10% FBS), 48 h, read-out: GI50 concentration
Excerpt: as §5, §6

CML (K562 cell lines) = settings: other reported cancer cells, read-out: GI50 concentration; cited from earlier work
MAPK = experiment: Western blot of MAPK phosphorylation in growth factor-conditioned cells; assay type: cell-based, human; settings: growth factor-conditioned Mia-PaCa-2 and T3M4 cells, Western blot
Protocol: (§9) Western blot analysis: Cell culture monolayers are washed twice with ice-cold PBS and lysed with buffer containing Tris-HCl (50 mM, pH 7.4), NP-40 (1%), Na-deoxycholate (0.25%), NaCl (150 mM), EDTA (1 mM), PMSF (1 mM), Na3VO4 (1 mM), NaF (1 mM) and one tablet of complete mini-EDTA-free protease inhibitor cocktail (in 10 ml buffer). Protein concentration is determined by the BCA protein assay (Pierce Chemical Co., Rockford, Ill., USA). 30 μg of cell lysates are separated on SDS-polyacrylamide gels and electroblotted onto nitrocellulose membranes. Membranes are then incubated in blocking solution (5% nonfat-milk in 20 mM Tris-HCl, 150 mM NaCl, 0.1% Tween-20) (TBS-T), followed by incubation with the indicated antibodies at 4° C. overnight. The membranes are then washed in TBS-T and incubated with HRPO-conjugated secondary antibodies for 1 hour at room temperature. Antibody detection is performed with an enhanced chemiluminescence reaction. Statistical analysis: Results are expressed as mean±SEM. For statistical analysis, the Student's t-test is used. Significance is defined as p<0.05.

T3M4 cells [10] = experiment: Growth factor-induced proliferation (MTT), T3M4; assay type: cell-based, human; settings: T3M4, IGF-1 plus Compound I at GI50, 72 hours, MTT
Protocol: as §7, §8

BxPc-3 cells = experiment: GI50 by MTT assay, BxPc-3 (Example 2); assay type: cell-based; settings: Homo sapiens, BxPc-3, complete medium (10% FBS), 48 h, read-out: GI50 concentration
Excerpt: as §5, §6

MIA PaCA-2 cells = experiment: MTT cell growth assay, MIA PaCA-2 cells (Example 1); assay type: cell-based; settings: Homo sapiens, MIA PaCa-2, 72 h, Mia-Paca-2, 75 μM Compound I, read-out: Percent growth inhibition by comparison with control cell growth
Excerpt: as §2, §3, §4

Mia-PaCa-2 cells [11] = experiment: Propidium iodide staining of cell death, Mia-PaCa-2; assay type: cell-based, human; settings: Mia-PaCa-2, Compound I at GI50, 1% FBS medium; control 10.7% ±2.5%
Excerpt: as §1

T3M4 cells [12] = experiment: Propidium iodide staining of cell death, T3M4; assay type: cell-based, human; settings: T3M4, Compound I at GI50, 1% FBS medium; control 5.7% ±2.8%
Excerpt: as §1

[13] = system: Lung cancer (A549 cell line); settings: other reported cancer cells, read-out: GI50 concentration; cited from earlier work
EGFR = biological target: T1, EGFR (Homo sapiens, UniProt P00533); experiment: Western blot of EGFR phosphorylation in growth factor-conditioned cells; assay type: cell-based; settings: growth factor-conditioned Mia-PaCa-2 and T3M4 cells
T1 construct: endogenous in cells; host or cells: Mia-PaCa-2 and T3M4 pancreatic cancer cells
T1 sequence (P00533 25-1210): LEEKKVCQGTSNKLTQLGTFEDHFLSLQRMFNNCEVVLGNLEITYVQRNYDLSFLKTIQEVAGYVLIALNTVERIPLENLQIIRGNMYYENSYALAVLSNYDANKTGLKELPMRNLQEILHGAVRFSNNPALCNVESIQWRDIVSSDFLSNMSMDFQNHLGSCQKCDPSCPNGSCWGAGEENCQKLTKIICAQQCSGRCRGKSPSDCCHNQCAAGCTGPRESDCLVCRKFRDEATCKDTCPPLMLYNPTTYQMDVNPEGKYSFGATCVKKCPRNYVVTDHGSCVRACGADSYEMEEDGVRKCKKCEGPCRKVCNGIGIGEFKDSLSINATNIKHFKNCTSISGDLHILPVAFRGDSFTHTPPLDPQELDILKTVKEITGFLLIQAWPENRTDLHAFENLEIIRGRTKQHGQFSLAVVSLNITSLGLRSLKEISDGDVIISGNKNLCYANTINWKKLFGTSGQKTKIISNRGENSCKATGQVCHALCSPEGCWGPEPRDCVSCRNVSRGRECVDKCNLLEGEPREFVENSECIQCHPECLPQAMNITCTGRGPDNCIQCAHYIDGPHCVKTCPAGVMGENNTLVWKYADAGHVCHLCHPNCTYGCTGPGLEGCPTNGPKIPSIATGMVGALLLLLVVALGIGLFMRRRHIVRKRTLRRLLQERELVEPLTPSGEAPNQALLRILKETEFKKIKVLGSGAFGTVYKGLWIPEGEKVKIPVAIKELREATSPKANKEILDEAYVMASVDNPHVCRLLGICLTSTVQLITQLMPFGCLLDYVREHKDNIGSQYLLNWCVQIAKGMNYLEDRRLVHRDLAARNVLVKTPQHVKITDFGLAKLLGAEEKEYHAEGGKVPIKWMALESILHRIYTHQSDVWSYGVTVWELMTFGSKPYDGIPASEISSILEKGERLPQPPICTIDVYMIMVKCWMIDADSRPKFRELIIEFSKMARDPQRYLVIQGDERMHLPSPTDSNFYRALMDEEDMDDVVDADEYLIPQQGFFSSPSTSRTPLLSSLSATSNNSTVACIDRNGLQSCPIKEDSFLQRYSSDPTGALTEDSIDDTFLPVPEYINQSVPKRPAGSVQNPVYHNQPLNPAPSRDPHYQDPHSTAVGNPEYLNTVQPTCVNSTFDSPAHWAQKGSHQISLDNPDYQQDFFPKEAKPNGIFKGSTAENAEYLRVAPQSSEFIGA
Protocol: as §9

[14] = system: six tested pancreatic cancer cell lines; experiment: GI50 by MTT assay, span over all six pancreatic cancer cell lines; assay type: cell-based; settings: Homo sapiens, read-out: GI50 concentration, range over cell lines
Excerpt: as §5, §6

Compound: Cc1ccc(NC(=O)c2ccc(CN3CCN(C)CC3)cc2)cc1Nc1nccc(-c2cccnc2)n1 [Compound I]
- Change in cell cycle pattern [1]: does not reveal any significant changes in the cell cycle pattern; also recorded: no cell cycle change
- Percent growth inhibition by comparison with control cell growth (ASPC-1 cells [2]; Aspc-1, 5 μM Compound I, 72 h, 5 µM): −12.9% and −4.8% and −3.7%
- inhibition at 75 µM (ASPC-1 cells [2]; Homo sapiens, ASPC1, 72 h, Aspc-1, 75 μM Compound I, read-out: Percent growth inhibition by comparison with control cell growth): 85.6%
- GI50 (ASPC-1 cells [3]; Aspc-1, complete medium (10% FBS), 48 h, MTT): 31.5 µM
- GI50 (ASPC-1 cells [3]; Aspc-1, low serum conditions (1% FCS)): 20 µM
- Inhibitory effect on IGF-1-induced proliferation (Mia-PaCa-2 cells [4]): no significant inhibitory effects
- GI50 (colorectal cancer (HT29)): 6 µM
- inhibition at 75 µM (T3M4 cells [5]; Homo sapiens, T3M4, 72 h, T3M4, 75 μM Compound I, read-out: Percent growth inhibition by comparison with control cell growth): 85.6%
- Percent growth inhibition by comparison with control cell growth (T3M4 cells [5]; T3M4, 5 μM Compound I, 72 h, 5 µM): −12.9% and −4.8% and −3.8%
- GI50 (Mia-PaCa-2 cells [6]; Mia-PaCa-2, complete medium (10% FBS), 48 h, MTT): 26 µM
- GI50 (Mia-PaCa-2 cells [6]; Mia-PaCa-2, low serum conditions (1% FCS)): 9 µM
- Minimal threshold effects on cell growth ([7]; 5 μM Compound I, p>0.05): −4% to −9
- Maximal inhibitory effects on cell growth ([7]; 75 µM Compound I, p<0.001): −77% to −90
- GI50 (Colo-357 cells): 17 µM
- GI50 [8]: ~5 µM
- inhibition at 25 µM (TAKA-1 cells; Mesocricetus auratus, TAKA-1, 25 μM Compound I, read-out: Percent growth inhibition by comparison with control cell growth): 70.9%
- inhibition at 75 µM (TAKA-1 cells; Mesocricetus auratus, TAKA-1, 75 μM Compound I, read-out: Percent growth inhibition by comparison with control cell growth): 90.8%
- Percent growth inhibition by comparison with control cell growth (TAKA-1 cells; TAKA-1, 25 μM Compound I, 25 µM): −65% and −67.9%
- Percent growth inhibition by comparison with control cell growth (TAKA-1 cells; TAKA-1, 75 μM Compound I, 75 µM): −91.5% and −90.6%
- Apoptotic cell death (pancreatic tumor cells): No apoptotic cell death is observed
- GI50 (T3M4 cells [9]): 25 µM
- GI50 (Capan-1 cells): 19 µM
- GI50 (CML (K562 cell lines)): 0.56 µM
- Inhibition of MAPK activation (MAPK): does not inhibit activation
- Inhibitory effect on IGF-1-induced proliferation (T3M4 cells [10]): no significant inhibitory effects
- GI50 (BxPc-3 cells): 21 µM
- inhibition at 75 µM (MIA PaCA-2 cells): 86.6%
- Cell death by propidium iodide staining (Mia-PaCa-2 cells [11]): 33.7±16.5%
- Cell death by propidium iodide staining (T3M4 cells [12]): 26.8% +16.5
- GI50 [13]: 2 to 3 µM
- Inhibition of EGFR activation (EGFR): does not inhibit activation
- GI50 ([14]; all six pancreatic cancer cell lines, 10% FBS/FCS medium): 17 to 31.5 µM
- GI50 ([14]; pancreatic cancer cell lines, low serum conditions (1% FCS)): 9 to 20 µM
